# Paper PMC12361428 (Nature Communications, 2025)
# Values joined by “and” are separate entries in the source; they are usually repeats but may differ in a detail not shown here. Identical values can stand only once.
# Legend:
# A3AR M174A^5.35 = target: T1, A3AR M174A^5.35 (Homo sapiens, UniProt P0DMS8, M174A); experiment: Gαi1 activation, TruPath BRET assay in HEK293a cells; type: cell-based
# T1 construct: expressed in transfected cells; host or cells: HEK293a
# Experimental: Two days post-transfection, plates were washed twice with BRET buffer (HBSS with 10 mM HEPES, pH 7.4). After a 30-min incubation at 37 °C, plates were placed in a PHERAstar plate reader at 37 °C, and four baseline readings were taken using BRET2 filters at 410 ± 80 nm and 515 ± 30 nm. […] BRET2 ratios were calculated as the ratio of GFP2 emission (515 ± 30 nm) to RLuc8 emission (410 ± 80 nm).
# Data were expressed as the mean ± standard error. All binding and Trupath data were analysed using the nonlinear regression curve-fitting programme with Prism 10 (GraphPad, San Diego, CA, USA). […] Trupath's experimental data was baseline-corrected to the initial four baseline reads and then adjusted to the buffer control response. The area under the curve (AUC) for each response was calculated and plotted with a non-linear regression curve (log[agonist] vs response, three-parameter model), using the equation: Y = Bottom + (Top–Bottom)/(1 + 10^((LogEC50-X))). Here, X represents the log dose of the agonist, Y is the BRET2 AUC response, Top and Bottom are the curve plateaus, and EC50 is the agonist concentration yielding a response halfway between the Bottom and Top values. […] Significant differences vs WT were determined by one-way ANOVA with a Dunnett’s multiple comparison test.
# A3AR T94A^3.36 = target: T2, A3AR T94A^3.36 (Homo sapiens, UniProt P0DMS8, T94A); experiment: as above; type: cell-based
# T2 construct: expressed in transfected cells; host or cells: HEK293a
# T2 sequence (P0DMS8 whole entry T94A): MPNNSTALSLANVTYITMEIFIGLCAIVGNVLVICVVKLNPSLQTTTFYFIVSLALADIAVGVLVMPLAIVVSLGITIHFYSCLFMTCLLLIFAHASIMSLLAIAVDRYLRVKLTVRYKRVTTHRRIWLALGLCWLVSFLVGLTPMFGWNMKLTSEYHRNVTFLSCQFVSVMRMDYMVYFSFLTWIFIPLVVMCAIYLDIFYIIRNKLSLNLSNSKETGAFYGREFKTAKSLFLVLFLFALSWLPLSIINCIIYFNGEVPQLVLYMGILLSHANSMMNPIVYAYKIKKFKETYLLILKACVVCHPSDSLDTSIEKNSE
# Experimental: PEI was added at a 6:1 PEI-to-DNA ratio.
# Data were expressed as the mean ± standard error. All binding and Trupath data were analysed using the nonlinear regression curve-fitting programme with Prism 10 (GraphPad, San Diego, CA, USA). For nanoBRET saturation binding experiments, specific binding was calculated by subtracting non-specific binding (defined as binding in the presence of 10 µM MRS1220) from total binding. Specific binding data in each experiment were then normalised to the maximal binding (Bmax) of WT and fit to a one-site specific binding equation: Y =Bmax*[X]/(Kd + [X]). For nanoBRET competition binding experiments, data were normalised to total and non-specific binding responses and fit to a one-site—Fit Ki equation. Trupath's experimental data was baseline-corrected to the initial four baseline reads and then adjusted to the buffer control response. The area under the curve (AUC) for each response was calculated and plotted with a non-linear regression curve (log[agonist] vs response, three-parameter model), using the equation: Y = Bottom + (Top–Bottom)/(1 + 10^((LogEC50-X))). […] Significant differences vs WT were determined by one-way ANOVA with a Dunnett’s multiple comparison test. […]
# Nluc-A3AR M174A^5.35 = target: T3, Nluc-A3AR M174A^5.35 (Homo sapiens, UniProt P0DMS8, M174A); experiment: biochemical; type: binding; settings: M174A, read-out: normalised XAC-630 binding
# T3 construct: expressed in transfected cells; host or cells: HEK293a
# T3 sequence (P0DMS8 whole entry M174A): as the sequence (P0DMS8 whole entry T94A) above, with A94T, M174A counted along it
# Experimental: (§1) All experiments were performed in duplicate.
# (§2) Data were expressed as the mean ± standard error. All binding and Trupath data were analysed using the nonlinear regression curve-fitting programme with Prism 10 (GraphPad, San Diego, CA, USA). For nanoBRET saturation binding experiments, specific binding was calculated by subtracting non-specific binding (defined as binding in the presence of 10 µM MRS1220) from total binding. Specific binding data in each experiment were then normalised to the maximal binding (Bmax) of WT and fit to a one-site specific binding equation: Y =Bmax*[X]/(Kd + [X]). For nanoBRET competition binding experiments, data were normalised to total and non-specific binding responses and fit to a one-site—Fit Ki equation. Trupath's experimental data was baseline-corrected to the initial four baseline reads and then adjusted to the buffer control response. The area under the curve (AUC) for each response was calculated and plotted with a non-linear regression curve (log[agonist] vs response, three-parameter model), using the equation: Y = Bottom + (Top–Bottom)/(1 + 10^((LogEC50-X))). Here, X represents the log dose of the agonist, Y is the BRET2 AUC response, Top and Bottom are the curve plateaus, and EC50 is the agonist concentration yielding a response halfway between the Bottom and Top values. […] The efficacy of the agonists (τA) was separately calculated using the Black–Leff operational model of agonism[79] using KA values from Table 2 and then corrected for receptor expression relative to WT using Bmax values from Table 1[80]. Significant differences vs WT were determined by one-way ANOVA with a Dunnett’s multiple comparison test.
# Nluc-A3AR Y265A^7.36 = target: T4, Nluc-A3AR Y265A^7.36 (Homo sapiens, UniProt P0DMS8, Y265A); experiment: biochemical; type: binding; settings: Y265A, read-out: normalised XAC-630 binding
# T4 construct: expressed in transfected cells; host or cells: HEK293a
# T4 sequence (P0DMS8 whole entry Y265A): as the sequence (P0DMS8 whole entry T94A) above, with A94T, Y265A counted along it
# Experimental: as §1, §2
# Nluc-A3AR WT = target: T5, Nluc-A3AR WT (Homo sapiens, UniProt P0DMS8); experiment: biochemical; type: binding; settings: WT, read-out: normalised XAC-630 binding
# T5 construct: expressed in transfected cells; host or cells: HEK293a
# T5 sequence (P0DMS8 whole entry): as the sequence (P0DMS8 whole entry T94A) above, with A94T counted along it
# Experimental: as §1
# (§3) Data were expressed as the mean ± standard error. All binding and Trupath data were analysed using the nonlinear regression curve-fitting programme with Prism 10 (GraphPad, San Diego, CA, USA). For nanoBRET saturation binding experiments, specific binding was calculated by subtracting non-specific binding (defined as binding in the presence of 10 µM MRS1220) from total binding. Specific binding data in each experiment were then normalised to the maximal binding (Bmax) of WT and fit to a one-site specific binding equation: Y =Bmax*[X]/(Kd + [X]). For nanoBRET competition binding experiments, data were normalised to total and non-specific binding responses and fit to a one-site—Fit Ki equation. […] Significant differences vs WT were determined by one-way ANOVA with a Dunnett’s multiple comparison test.
# Nluc-A3AR T94A^3.36 = target: T6, Nluc-A3AR T94A^3.36 (Homo sapiens, UniProt P0DMS8, T94A); experiment: biochemical; type: binding; settings: T94A, read-out: normalised XAC-630 binding
# T6 construct: expressed in transfected cells; host or cells: HEK293a
# T6 sequence (P0DMS8 whole entry T94A): as the sequence (P0DMS8 whole entry T94A) above
# Experimental: as §1, §2
# Nluc-A3AR H95F^3.37 = target: T7, Nluc-A3AR H95F^3.37 (Homo sapiens, UniProt P0DMS8, H95F); experiment: biochemical; type: binding; settings: H95F; log[adenosine] -8; read-out: normalised XAC-630 binding
# T7 construct: expressed in transfected cells; host or cells: HEK293a
# Experimental: as §1
# (§4) Data were expressed as the mean ± standard error. All binding and Trupath data were analysed using the nonlinear regression curve-fitting programme with Prism 10 (GraphPad, San Diego, CA, USA). For nanoBRET saturation binding experiments, specific binding was calculated by subtracting non-specific binding (defined as binding in the presence of 10 µM MRS1220) from total binding. Specific binding data in each experiment were then normalised to the maximal binding (Bmax) of WT and fit to a one-site specific binding equation: Y =Bmax*[X]/(Kd + [X]). For nanoBRET competition binding experiments, data were normalised to total and non-specific binding responses and fit to a one-site—Fit Ki equation. Trupath's experimental data was baseline-corrected to the initial four baseline reads and then adjusted to the buffer control response. The area under the curve (AUC) for each response was calculated and plotted with a non-linear regression curve (log[agonist] vs response, three-parameter model), using the equation: Y = Bottom + (Top–Bottom)/(1 + 10^((LogEC50-X))). Here, X represents the log dose of the agonist, Y is the BRET2 AUC response, Top and Bottom are the curve plateaus, and EC50 is the agonist concentration yielding a response halfway between the Bottom and Top values. […] Significant differences vs WT were determined by one-way ANOVA with a Dunnett’s multiple comparison test. Significance levels are indicated as follows: P ≤ 0.0001****, P = 0.0001–0.001***, P = 0.001–0.01**, and P = 0.01–0.05*.
# Nluc-A3AR H95A^3.37 = target: T8, Nluc-A3AR H95A^3.37 (Homo sapiens, UniProt P0DMS8, H95A); experiment: biochemical; type: binding; settings: H95A, read-out: normalised XAC-630 binding
# T8 construct: expressed in transfected cells; host or cells: HEK293a
# T8 sequence (P0DMS8 whole entry H95A): as the sequence (P0DMS8 whole entry T94A) above, with A94T, H95A counted along it
# Experimental: as §1, §4
# A3AR H95F^3.37 = target: T9, A3AR H95F^3.37 (Homo sapiens, UniProt P0DMS8, H95F); experiment: Gαi1 activation, TruPath BRET assay in HEK293a cells; type: cell-based
# T9 construct: expressed in transfected cells; host or cells: HEK293a
# T9 sequence (P0DMS8 1-318 H95F): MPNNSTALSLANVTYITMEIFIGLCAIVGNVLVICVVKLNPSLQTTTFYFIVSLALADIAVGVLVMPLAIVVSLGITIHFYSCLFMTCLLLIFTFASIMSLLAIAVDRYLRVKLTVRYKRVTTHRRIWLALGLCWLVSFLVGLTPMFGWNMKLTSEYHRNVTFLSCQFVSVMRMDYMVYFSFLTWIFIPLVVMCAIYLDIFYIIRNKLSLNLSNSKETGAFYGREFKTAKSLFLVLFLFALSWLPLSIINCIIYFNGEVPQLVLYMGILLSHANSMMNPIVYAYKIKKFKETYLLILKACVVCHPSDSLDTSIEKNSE
# Experimental: PEI was added at a 6:1 PEI-to-DNA ratio. Two days post-transfection, plates were washed twice with BRET buffer (HBSS with 10 mM HEPES, pH 7.4). After a 30-min incubation at 37 °C, plates were placed in a PHERAstar plate reader at 37 °C, and four baseline readings were taken using BRET2 filters at 410 ± 80 nm and 515 ± 30 nm. […] BRET2 ratios were calculated as the ratio of GFP2 emission (515 ± 30 nm) to RLuc8 emission (410 ± 80 nm).
# Data were expressed as the mean ± standard error. All binding and Trupath data were analysed using the nonlinear regression curve-fitting programme with Prism 10 (GraphPad, San Diego, CA, USA). For nanoBRET saturation binding experiments, specific binding was calculated by subtracting non-specific binding (defined as binding in the presence of 10 µM MRS1220) from total binding. Specific binding data in each experiment were then normalised to the maximal binding (Bmax) of WT and fit to a one-site specific binding equation: Y =Bmax*[X]/(Kd + [X]). For nanoBRET competition binding experiments, data were normalised to total and non-specific binding responses and fit to a one-site—Fit Ki equation. Trupath's experimental data was baseline-corrected to the initial four baseline reads and then adjusted to the buffer control response. The area under the curve (AUC) for each response was calculated and plotted with a non-linear regression curve (log[agonist] vs response, three-parameter model), using the equation: Y = Bottom + (Top–Bottom)/(1 + 10^((LogEC50-X))). Here, X represents the log dose of the agonist, Y is the BRET2 AUC response, Top and Bottom are the curve plateaus, and EC50 is the agonist concentration yielding a response halfway between the Bottom and Top values. To determine efficacy values. The efficacy of the agonists (τA) was separately calculated using the Black–Leff operational model of agonism[79] using KA values from Table 2 and then corrected for receptor expression relative to WT using Bmax values from Table 1[80]. Significant differences vs WT were determined by one-way ANOVA with a Dunnett’s multiple comparison test. Significance levels are indicated as follows: P ≤ 0.0001****, P = 0.0001–0.001***, P = 0.001–0.01**, and P = 0.01–0.05*.
# Nluc-A3AR Y15A^1.35 = target: T10, Nluc-A3AR Y15A^1.35 (Homo sapiens, UniProt P0DMS8, Y15A); experiment: biochemical; type: binding; settings: Y15A; log[adenosine] -8; read-out: normalised XAC-630 binding
# T10 construct: expressed in transfected cells; host or cells: HEK293a
# T10 sequence (P0DMS8 whole entry Y15A): as the sequence (P0DMS8 whole entry T94A) above, with Y15A, A94T counted along it
# Experimental: as §1, §2
# Nluc-A3AR V169E^45.53 = target: T11, Nluc-A3AR V169E^45.53 (Homo sapiens, UniProt P0DMS8, V169E); experiment: biochemical; type: binding; settings: V169E, read-out: normalised XAC-630 binding
# T11 construct: expressed in transfected cells; host or cells: HEK293a
# T11 sequence (P0DMS8 whole entry V169E): as the sequence (P0DMS8 whole entry T94A) above, with A94T, V169E counted along it
# Experimental: as §1, §4
# Nluc-A3AR S73A^2.65 = target: T12, Nluc-A3AR S73A^2.65 (Homo sapiens, UniProt P0DMS8, S73A); experiment: biochemical; type: binding; settings: S73A, read-out: normalised XAC-630 binding
# T12 construct: expressed in transfected cells; host or cells: HEK293a
# T12 sequence (P0DMS8 whole entry S73A): as the sequence (P0DMS8 whole entry T94A) above, with S73A, A94T counted along it
# Experimental: as §1, §3
# Nluc-A3AR S271A^7.42 = target: T13, Nluc-A3AR S271A^7.42 (Homo sapiens, UniProt P0DMS8, S271A); experiment: biochemical; type: binding; settings: S271A, read-out: normalised XAC-630 binding
# T13 construct: expressed in transfected cells; host or cells: HEK293a
# T13 sequence (P0DMS8 whole entry S271A): as the sequence (P0DMS8 whole entry T94A) above, with A94T, S271A counted along it
# Experimental: as §1, §3
# T1 sequence (P0DMS8 whole entry M174A): as the sequence (P0DMS8 whole entry T94A) above, with A94T, M174A counted along it
smiles,measurement,setting,value
"Nc1ncnc2c1ncn2[C@@H]1O[C@H](CO)[C@@H](O)[C@H]1O [Adenosine, adenosine]","log τ (efficacy, operational model, corrected for receptor expression)",A3AR M174A^5.35,-0.1 ± 0.2
same,∆∆BRET Emax,A3AR M174A^5.35,1.35 ± 0.01
same,"log τ (efficacy, operational model, corrected for receptor expression)",A3AR T94A^3.36,0.8 ± 0.09
same,∆∆BRET Emax,A3AR T94A^3.36,0.49 ± 0.04
same,remaining activity at 1 µM,Nluc-A3AR M174A^5.35; log[adenosine] -6,100%
same,remaining activity at 0.01 µM,Nluc-A3AR M174A^5.35; log[adenosine] -8,101%
same,remaining activity at 100 µM,Nluc-A3AR Y265A^7.36; log[adenosine] -4,69.6%
same,remaining activity at 10 µM,Nluc-A3AR Y265A^7.36; log[adenosine] -5,94.1%
same,remaining activity at 1 µM,Nluc-A3AR Y265A^7.36; log[adenosine] -6,97.4%
same,remaining activity at 0.1 µM,Nluc-A3AR Y265A^7.36; log[adenosine] -7,99.2%
same,remaining activity at 0.01 µM,Nluc-A3AR Y265A^7.36; log[adenosine] -8,100%
same,remaining activity at 1 µM,Nluc-A3AR WT; log[adenosine] -6,103%
same,remaining activity at 0.1 µM,Nluc-A3AR WT; log[adenosine] -7,102%
same,remaining activity at 0.01 µM,Nluc-A3AR WT; log[adenosine] -8,100%
same,remaining activity at 1 µM,Nluc-A3AR T94A^3.36; log[adenosine] -6,100%
same,remaining activity at 0.1 µM,Nluc-A3AR T94A^3.36; log[adenosine] -7,103%
same,remaining activity at 0.01 µM,Nluc-A3AR T94A^3.36; log[adenosine] -8,100%
same,remaining activity at 0.01 µM,Nluc-A3AR H95F^3.37,100%
same,remaining activity at 1000 µM,Nluc-A3AR H95A^3.37; log[adenosine] -3,24%
same,remaining activity at 100 µM,Nluc-A3AR H95A^3.37; log[adenosine] -4,82.5%
same,remaining activity at 10 µM,Nluc-A3AR H95A^3.37; log[adenosine] -5,97.8%
same,remaining activity at 1 µM,Nluc-A3AR H95A^3.37; log[adenosine] -6,105%
same,remaining activity at 0.1 µM,Nluc-A3AR H95A^3.37; log[adenosine] -7,95.8%
same,remaining activity at 0.01 µM,Nluc-A3AR H95A^3.37; log[adenosine] -8,100%
same,"log τ (efficacy, operational model, corrected for receptor expression)",A3AR H95F^3.37,N.R.
same,∆∆BRET Emax,A3AR H95F^3.37,N.R
same,"Gαi1 activation response (Figure 7F), individual replicates",A3AR H95F^3.37; log [agonist] -3,0.03876 and 0.1313 and 0.08684
same,"Gαi1 activation response (Figure 7F), individual replicates",A3AR H95F^3.37; log [agonist] -4,0.03491 and 0.05099 and 0.06294
same,"Gαi1 activation response (Figure 7F), individual replicates",A3AR H95F^3.37; log [agonist] -5,0.01638 and 0.04515 and 0.03044
same,"Gαi1 activation response (Figure 7F), individual replicates",A3AR H95F^3.37; log [agonist] -6,0.01795 and 0.02273 and 0.02037
same,"Gαi1 activation response (Figure 7F), individual replicates",A3AR H95F^3.37; log [agonist] -7,0.02917 and 0.01651 and 0.04473
same,"Gαi1 activation response (Figure 7F), individual replicates",A3AR H95F^3.37; log [agonist] -8,0.01844 and 0.06153 and 0.04217
same,"Gαi1 activation response (Figure 7F), individual replicates",A3AR H95F^3.37; log [agonist] -9,0.02564 and 0.03775 and 0.0773
same,remaining activity at 0.01 µM,Nluc-A3AR Y15A^1.35,100%
same,remaining activity at 100 µM,Nluc-A3AR V169E^45.53; log[adenosine] -4,37.3%
same,remaining activity at 10 µM,Nluc-A3AR V169E^45.53; log[adenosine] -5,78.7%
same,remaining activity at 1 µM,Nluc-A3AR V169E^45.53; log[adenosine] -6,98%
same,remaining activity at 0.1 µM,Nluc-A3AR V169E^45.53; log[adenosine] -7,95.5%
same,remaining activity at 0.01 µM,Nluc-A3AR V169E^45.53; log[adenosine] -8,100%
same,remaining activity at 10 µM,Nluc-A3AR S73A^2.65; log[adenosine] -5,82.6%
same,remaining activity at 1 µM,Nluc-A3AR S73A^2.65; log[adenosine] -6,100%
same,remaining activity at 0.1 µM,Nluc-A3AR S73A^2.65; log[adenosine] -7,100%
same,remaining activity at 0.01 µM,Nluc-A3AR S73A^2.65; log[adenosine] -8,100%
same,remaining activity at 1000 µM,Nluc-A3AR S271A^7.42; log[adenosine] -3,90.4%
same,remaining activity at 100 µM,Nluc-A3AR S271A^7.42; log[adenosine] -4,102%
same,remaining activity at 10 µM,Nluc-A3AR S271A^7.42; log[adenosine] -5,100%
same,remaining activity at 1 µM,Nluc-A3AR S271A^7.42; log[adenosine] -6,104%
same,remaining activity at 0.1 µM,Nluc-A3AR S271A^7.42; log[adenosine] -7,105%
same,remaining activity at 0.01 µM,Nluc-A3AR S271A^7.42; log[adenosine] -8,100%
